Ends that are not written are not given here.
Legend:
[1] = tested on: S. aureus ATCC 25923; type: cell-based, Staphylococcus aureus
Description: MIC values were determined by broth microdilution following the guidelines of the European Committee on Antimicrobial Susceptibility Testing (EUCAST, Version 5.0), with a modification in the choice of medium. Instead of cation-adjusted Mueller–Hinton Broth (CA-MHB), Luria–Bertani (LB) broth was used for all MIC assays involving S. aureus ATCC 25923 to ensure consistency with conditions used in complementary experiments. Two-fold serial dilutions of peptides (ranging from 1.56 to 50 µg/mL) were prepared in sterile LB, inoculated with ~5 × 10^5 CFU/mL bacterial suspension, and incubated at 37 °C for 18–20 h. MIC was defined as the lowest peptide concentration with no visible bacterial growth. All assays were performed in triplicate.

[2] = tested on: S. aureus ATCC 25923; assay: Spot-on-the-lawn antimicrobial screening; type: cell-based, Staphylococcus aureus; conditions: 5 µL spots at 1000, 500, 250, 125 and 62.5 µg/mL on LB soft agar lawn; overnight, 37 °C
Description: The antimicrobial activity screening assay of twelve chemically synthesized peptides was evaluated using a spot-on-the-lawn assay against S. aureus ATCC 25923.
S. aureus ATCC 25923 was grown overnight in LB broth, adjusted to 0.5 McFarland (~1 × 10^8 CFU/mL), and mixed 1:100 into molten soft agar (0.7% agar in LB). Five milliliters of this suspension was overlaid onto LB agar plates and allowed to solidify.
Peptide stock solutions (1 mg/mL) were serially diluted in sterile water, and 5 µL of each dilution was carefully spotted onto the surface of the inoculated agar. The plates were dried under a laminar flow hood for 15–20 min and incubated overnight at 37 °C. Zones were observed, and their size and clarity were compared.

[3] = tested on: S. aureus ATCC 25923; type: cell-based, Staphylococcus aureus; remark: listed apart in the source
[4] = set-up: method as in PMID 28842543; conditions: cited from earlier work
[5] = tested on: gut peptidases; set-up: method as in PMID 28842543; conditions: cited from earlier work
[6] = tested on: Danio rerio embryos; assay: Zebrafish embryo toxicity (OECD TG 236); type: in vivo; conditions: 120 hpf
Description: Embryos were exposed to six different increasing concentrations of each peptide for 5 consecutive days (120 hfp) and examined for survival and signs of toxicity, following toxicological endpoints (Table S1).
The toxicity of synthetic peptide variants was assessed in vivo using Danio rerio embryos, in accordance with OECD Test Guideline 236 (Fish Embryo Acute Toxicity Test) and the European Directive 2010/63/EU on the protection of animals used for scientific purposes, according to Aleksic et al.. All procedures were conducted at the Institute of Molecular Genetics and Genetic Engineering, University of Belgrade.
Wild-type adult zebrafish were maintained under standard laboratory conditions (28 °C; 14:10 h light–dark cycle). Embryos were obtained via pairwise mating and collected within 1 h post-fertilization (hpf). At 5 hpf, the embryos were randomly distributed into 24-well plates (10 embryos/well, 1 mL embryo medium per well) containing embryo water (0.2 mg/mL Instant Ocean® salts in distilled water). Peptides were tested at five concentrations (e.g., 1.56–25 µg/mL) in triplicate. Peptide solvent was used as a negative control. The plates were incubated at 28 °C without media replacement.
Embryonic development was monitored using an inverted microscope (Zeiss Stemi 508; Carl Zeiss Microscopy GmbH, Jena, Germany). Lethal endpoints and sublethal malformations were scored according to OECD guidelines (Table S1). At 120 hpf, the embryos were anesthetized using 0.1% tricaine, photographed, and euthanized via freezing at −20 °C for 24 h.
LC50 values were estimated using the log–logistic binomial model (LL.2) from the drc package in R.
Dose–response curves and LC50 values were estimated using the log–logistic binomial model (LL.2) from the drc package in R [79] (version 2025.05.0). Mortality data were modeled as proportions of dead individuals relative to total individuals tested, and 95% confidence intervals for LC50 were calculated using the delta method.

[7] = tested on: sheep erythrocytes; assay: Hemolysis assay; type: cell-based
Description: Hemolytic activity of peptides was assessed as described by Dong et al., with some modifications. Fresh defibrinated sheep blood was obtained from the Institute of Virology, Vaccines and Sera “Torlak” (Belgrade, Serbia). Erythrocytes were washed three times with sterile Tris-buffered saline (TBS, 10 mM TRIS-HCl, pH 7.4, 150 mM NaCl) by centrifugation at 800× g for 5 min and resuspended to a final 2% (v/v) erythrocyte suspension in TBS.
Peptide solutions (0.02 M HCl) were diluted in Tris-buffered saline (TBS, 10 mM TRIS-HCl, pH 7.4, 150 mM NaCl) to final concentrations ranging from 6.25 to 50 µg/mL. In a 96-well flat-bottom plate, 100 µL of peptide solution was mixed with 100 µL of erythrocyte suspension and incubated at 37 °C for 1 h.
After incubation, the plates were centrifuged at 1000× g for 5 min, and 100 µL of the supernatant was transferred to a flat-bottom 96-well plate. Absorbance was measured at 540 nm using a microplate reader (model BioTek Epoch Microplate Spectrophotometer; Agilent Technologies, Winooski, VT, USA).
Hemolysis (%) was calculated relative to a negative control (TBS; 0% lysis) and a positive control (0.1% SDS; 100% lysis) using the formula: Hemolysis (%)=Asample−ATBS/ASDS−ATBS×100
The assay was performed in triplicate.

Sequence | MIC [1] | zones of inhibition, spot-on-the-lawn assay [2] | MBC [3] | pH range of activity [4] | salt tolerance [4] | sensitivity to gut peptidases [5] | concentration at which yolk sac retention was observed [6] | hemolytic activity, in words ([7]; 6.25 to 50 µg/mL, sheep erythrocytes, 37 °C, 1 h) | Hemolytic activity (%) at 50 µg/mL ([7]; pH 7.4)
MWGRILGTVAKYGAKAVSWAWQHKWELINMGDLAFRYIQRIWG [Peptide P14A] | 25 µg/mL | only faint inhibition zones at the highest concentrations (1000 and 500 µg/mL) |  |  |  |  |  |  | 
MEGRILGTVAKYGPKAVSWAWQHKWELINMGDLAFRYIQRIWG [Peptide W2E] | >50 µg/mL | decreased antimicrobial potency | >50 µg/mL |  |  |  |  |  | 
MWGRILGTVAKYGPKAVSWAWQAKWELINMGDLAFRYIQRIWG [Peptide H23A] | >50 µg/mL | complete loss of antimicrobial activity | >50 µg/mL |  |  |  |  |  | 
MWGRILGTVAKYGPKAVSWAWQRKWELINMGDLAFRYIQRIWG [Peptide H23R] | 12.5 µg/mL | comparable to the wild-type LBU peptide | 50 µg/mL |  |  |  |  |  | 
MWARILGTVAKYGPKAVSWAWQAKWELINMGDLAFRYIQRIWG [G3A/H23A] | >50 µg/mL | complete loss of antimicrobial activity | >50 µg/mL |  |  |  |  |  | 
MWGRILGTVAKYGPKAVSWAWQHKWELINMGDLAFRYIQRIWG [LBU] | 12.5 µg/mL | clear zones of inhibition across the tested concentrations, except 62.5 µg/mL | 25 µg/mL | shows activity in a wide pH range | salt-tolerable | sensitive to gut peptidases | 6250 ng/mL | negligible hemolytic activity across all concentrations | 2.98%
MWGRILGTVAKYGTKAVSWAWQHKWELINMGDLAFRYIQRIWG [Peptide P14T] | 25 µg/mL | retained partial activity with a mild decrease in zone diameter compared to LBU | >50 µg/mL |  |  |  |  |  | 

Source: publication PMC12348470, “Amino Acid Substitutions in Bacteriocin Lactolisterin BU Reveal Functional Domains Involved in Biological Activity Against Staphylococcus aureus” (Molecules, 2025)
